Reference: ChEMBL document CHEMBL4842332, “Eriocitrin Contained in Lemon Peel Ameliorates Disuse Muscle Atrophy by Suppressing the Expression of Atrogin-1 and MuRF-1 in Denervated Mice” (2021)
Activity calls are given as the source filed them. No cut-off for these calls is given here.

Key:
Mus musculus [1] = species: Mus musculus; test: Effect of PPARdelta mRNA expression in denervated C57BL/6NCrSlc mouse by RT-PCR analysis; assay type: functional, organism-based
Mus musculus [2] = species: Mus musculus; test: Antioxidant activity in denervated C57BL/6NCrSlc mouse assessed as […] in GSSG/GSH ratio in gastrocnemius muscle measured after 30 mins; assay type: functional, organism-based
Mus musculus [3] = species: Mus musculus; test: Downregulation of MuRF-1 mRNA expression in denervated C57BL/6NCrSlc mouse by RT-PCR analysis; assay type: functional
Mus musculus [4] = species: Mus musculus; test: Upregulation of SOD1 mRNA expression in denervated C57BL/6NCrSlc mouse by RT-PCR analysis; assay type: functional
Mus musculus [5] = species: Mus musculus; test: Effect of PPARgamma mRNA expression in denervated C57BL/6NCrSlc mouse by RT-PCR analysis; assay type: functional, organism-based
Mus musculus [6] = species: Mus musculus; test: Upregulation of IGF-1 mRNA expression in denervated C57BL/6NCrSlc mouse by RT-PCR analysis; assay type: functional
Mus musculus [7] = species: Mus musculus; test: Toxicity in denervated C57BL/6NCrSlc mouse assessed as effect on body weight (reference value: 25.74 g); assay type: functional
Mus musculus [8] = species: Mus musculus; test: Upregulation of Atrogin-1 mRNA expression in denervated C57BL/6NCrSlc mouse by RT-PCR analysis; assay type: functional
Mus musculus [9] = species: Mus musculus; test: Antioxidant activity in denervated C57BL/6NCrSlc mouse assessed as […] in lipid peroxide level in gastrocnemius muscle measured after 30 mins; assay type: functional, organism-based
Mus musculus [10] = species: Mus musculus; test: Effect on PGC1a mRNA expression in denervated C57BL/6NCrSlc mouse by RT-PCR analysis; assay type: functional
Mus musculus [11] = species: Mus musculus; test: Suppression of denervation-induced gastrocnemius muscle weight loss in C57BL/6NCrSlc mouse; assay type: functional, organism-based
Mus musculus [12] = species: Mus musculus; test: Downregulation of FOXO1 mRNA expression in denervated C57BL/6NCrSlc mouse by RT-PCR analysis; assay type: functional

C[C@@H]1O[C@@H](OC[C@H]2O[C@@H](Oc3cc(O)c4c(c3)O[C@H](c3ccc(O)c(O)c3)CC4=O)[C@H](O)[C@@H](O)[C@@H]2O)[C@H](O)[C@H](O)[C@H]1O [ERIOCITRIN]
Activity (Mus musculus [1]): inactive
Activity (Mus musculus [2]): Active
Activity (Mus musculus [3]): Active
Activity (Mus musculus [4]): Active
Activity (Mus musculus [5]): inactive
Activity (Mus musculus [6]): Active
Activity (Mus musculus [7]): 25.37 g
Activity (Mus musculus [8]): inactive
Activity (Mus musculus [9]): Active
Activity (Mus musculus [10]): inactive
Activity (Mus musculus [11]): Active
Activity (Mus musculus [12]): Active
